Patent US20250346579A1, “PYRIDAZINONE COMPOUND AND PREPARATION METHOD THEREFOR, PHARMACEUTICAL COMPOSITION THEREOF, AND APPLICATION THEREOF” (CHINA PHARMACEUTICAL UNIVERSITY, priority 2021, published 2025)
Like-named read-outs stand apart in the source and are kept apart here.

Target: T1, PARP7 (Homo sapiens, UniProt Q7Z3E1)
T1 construct: purchased BPS Bioscience
T1 sequence (Q7Z3E1 1-657): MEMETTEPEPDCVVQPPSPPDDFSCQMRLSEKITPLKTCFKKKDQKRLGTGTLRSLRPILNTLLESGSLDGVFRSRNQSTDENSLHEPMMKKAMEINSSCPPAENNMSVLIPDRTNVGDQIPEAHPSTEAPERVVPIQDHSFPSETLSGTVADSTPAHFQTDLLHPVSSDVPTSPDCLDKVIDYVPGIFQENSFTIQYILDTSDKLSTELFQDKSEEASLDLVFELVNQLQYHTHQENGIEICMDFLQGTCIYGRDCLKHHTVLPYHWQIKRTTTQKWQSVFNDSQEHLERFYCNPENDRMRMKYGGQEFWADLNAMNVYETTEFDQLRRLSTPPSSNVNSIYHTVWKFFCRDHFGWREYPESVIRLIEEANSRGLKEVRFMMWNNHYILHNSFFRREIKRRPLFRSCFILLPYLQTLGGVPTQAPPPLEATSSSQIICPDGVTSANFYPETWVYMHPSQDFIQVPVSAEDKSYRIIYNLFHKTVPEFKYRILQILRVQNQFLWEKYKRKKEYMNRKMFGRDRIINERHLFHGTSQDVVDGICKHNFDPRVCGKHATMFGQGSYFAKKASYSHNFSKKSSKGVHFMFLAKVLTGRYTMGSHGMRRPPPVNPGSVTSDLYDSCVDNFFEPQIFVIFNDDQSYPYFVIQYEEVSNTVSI
Assay: Inhibitory activity of compounds on PARP7 enzyme (PARP7 Chemiluminescent Assay Kit)
Type: biochemical
Procedure: Experimental materials: PARP7 Chemiluminescent Assay Kit, BPS Bioscience; DMSO, China National Pharmaceutical Group, Nivo, PerkinElmer.
(1) Preparation of Solutions and Buffers:
Preparation of 10×PBS: 720 mg of KH2PO4, 45 g of NaCl and 5.311 g of Na2HPO4·12H2O were weighed respectively and dissolved in 500 mL of deionized water, a system pH value was adjusted to 7.4, sterilization was performed at 121° C. for 30 min, and the system after cooling was placed at 4° C. for later use.
Preparation of 1×PBS: 10×PBS was diluted 10 times with deionized water, that is, 9 parts of deionized water was added to 1 part of 10×PBS for dilution.
Preparation of wash buffer: 1×PBS contained 0.05% Tween-20.
Preparation of 1×PARP buffer (prepared freshly before use): 10×PARP buffer was diluted 10 times with deionized water and placed on ice for later use.
(2) Preparation of Compound Working Solution Concentration:
According to test requirements, a compound to be tested is diluted with 100% DMSO to a desired concentration, and then diluted 10 times with 1×PARP buffer to prepare a 10× compound working solution.
a. 5× histone mixture was thawed on ice one day prior to the experiment;
b. preparation of 1× histone mixture: 1× histone mixture was prepared through the 5× histone mixture by using 1×PBS; and 25 μL of 1× histone mixture was taken from each well and transferred into a test well plate and incubated overnight at 4° C.;
c. 100 μL of Blocking buffer was taken from each well and added to the test well plate and incubated for 90 min at 25° C.;
d. after the incubation was completed, the liquid in the test well plate was spin-dried, and the test well plate was washed repeatedly for 3 times;
e. 2.5 μL of the compound working solution was taken from each well and added to the test well plate according to an experimental layout diagram; and 1×PARP buffer with a corresponding volume of 10% DMSO was added to positive control wells (Positive Control), and 1×PARP buffer of a corresponding volume was added to blank control wells (Blank);
f. after the enzyme was completely dissolved, an enzyme stock solution was diluted with 1×PARP buffer to 6 ng/μL;
g. 10 μL of enzyme solution was taken from each well and added to the test well plate, the blank control wells were added with the corresponding volume of 1×PARP buffer, and in which case, the enzyme amount was 60 ng per well. Note: this step needs to be performed on ice;
h. 12.5 μL of master mixture was added to each well of the test well plate (12.5 μL master mixture included 1.25 μL of 10×PARP buffer, 1.25 μL of Opti-PARP 10× Assay mixture and 10 μL of water); the test well plate was sealed and incubated at 25° C. for 60 min;
i. after the incubation was completed, the liquid in the test well plate was spin-dried, and the test well plate was washed repeatedly for 3 times;
j. Streptavidin-HRP in a kit was diluted 50 times with a Blocking buffer, 25 μL was taken from each well and added to the test well plate, and incubated at 25° C. for 30 min;
k. after the incubation was completed, the liquid in the test well plate was spin-dried, and the test well plate was washed repeatedly for 3 times;
l. ELISA ECL Substrate A and ELISA ECL Substrate B in the kit was mixed to obtain a mixed solution according to a ratio of 1:1, 50 μL of the mixed solution was added to each well of the test well plate, Nivo was used to perform Luminescence detection immediately, and a luminous value (RLU) was read; and
m. calculation of an enzyme rate: Enzyme Activity=(RLU(Sample)−RLU(Blank))/(RLU(Pos.Ctrl)−RLU(Blank))×100%; and enzyme inhibition rate=1−% Enzyme Activity, and specific results were shown in Table 1 below.

[1] = chemiluminescence, symbols defined as IC50 classes, read-out: 100 nM Inhibition Rate
[2] = summary of Table 1, read-out: enzyme inhibition IC50 values

COc1cnc(N2CCN(C(=O)C3CN(C[C@H](C)Nc4cn[nH]c(=O)c4C(F)(F)F)C3)CC2)nc1 [I-A-9, (S)-5-((1-(3-(4-(5-methoxypyrimidin-2-yl)piperazine-1-carbonyl)azetidin-1-yl)propan-2-yl)amino)-4-(trifluoromethyl)pyridazin-3(2H)-one]
IC50 [1]: < 100 nM

C[C@@H](CN1CCC(C(=O)N2CCN(c3ncc(C(F)(F)F)cn3)CC2)CC1)Nc1cn[nH]c(=O)c1C(F)(F)F [I-A-19, (S)-4-(trifluoromethyl)-5-((1-(4-(4-(5-(trifluoromethyl)pyrimidin-2-yl)piperazine-1-carbonyl)piperidin-1-yl)propan-2-yl)amino)pyridazin-3(2H)-one]
IC50 [1]: 100 to 500 nM

C[C@@H](CN1CC(C(=O)N2CCN(c3ccc4c(c3)OC(F)(F)O4)CC2)C1)Nc1cn[nH]c(=O)c1C(F)(F)F [I-B-1, (S)-5-((1-(3-(4-(2,2-difluorobenzo[d][1,3]dioxol-5-yl)piperazine-1-carbonyl)azetidin-1-yl)propan-2-yl)amino)-4-(trifluoromethyl)pyridazin-3(2H)-one]
IC50 [1]: < 100 nM | IC50 [2]: < 100 nM

C[C@@H](CN1CC(C(=O)N2CCN(c3ncc(C#N)cn3)CC2)C1)Nc1cn[nH]c(=O)c1C(F)(F)F [I-A-3, (S)-2-(4-(1-(2-((6-oxo-5-(trifluoromethyl)-1,6-dihydropyridazin-4-yl)amino)propyl)azetidine-3-carbonyl)piperazin-1-yl)pyrimidine-5-carbonitrile]
IC50 [1]: < 100 nM

C[C@@H](CN1CC(C(=O)N2CCN(c3ncc(C(F)(F)F)cn3)CC2)C1)Nc1cn[nH]c(=O)c1Br [I-A-23, (S)-4-bromo-5-((1-(3-(4-(5-(trifluoromethyl)pyrimidin-2-yl)piperazine-1-carbonyl)azetidin-1-yl)propan-2-yl)amino)pyridazin-3(2H)-one]
IC50 [1]: 100 to 500 nM

C[C@@H](CCN1CC(C(=O)N2CCN(c3ncc(C(F)(F)F)cn3)CC2)C1)Nc1cn[nH]c(=O)c1C(F)(F)F [I-A-21, (S)-4-(trifluoromethyl)-5-((4-(3-(4-(5-(trifluoromethyl)pyrimidin-2-yl)piperazine-1-carbonyl)azetidin-1-yl)butan-2-yl)amino)pyridazin-3(2H)-one]
IC50 [1]: 100 to 500 nM

C[C@@H](Cn1ccc(C(=O)N2CCN(c3ncc(C(F)(F)F)cn3)CC2)c1)Nc1cn[nH]c(=O)c1C(F)(F)F [I-C-1, (S)-4-(trifluoromethyl)-5-((1-(3-(4-(5-(trifluoromethyl)pyrimidin-2-yl)piperazine-1-carbonyl)-1H-pyrrol-1-yl)propan-2-yl)amino)pyridazin-3(2H)-one]
IC50 [1]: < 100 nM | IC50 [2]: < 100 nM

O=C(C1CN(CCNc2cn[nH]c(=O)c2C(F)(F)F)C1)N1CCN(c2ncc(C(F)(F)F)cn2)CC1 [I-A-20, 4-(trifluoromethyl)-5-((2-(3-(4-(5-(trifluoromethyl)pyrimidin-2-yl)piperazine-1-carbonyl)azetidin-1-yl)ethyl)amino)pyridazin-3(2H)-one]
IC50 [1]: < 100 nM | IC50 [2]: < 100 nM

CC1CN(c2ncc(C(F)(F)F)cn2)CC(C)N1C(=O)C1CN(C[C@H](C)Nc2cn[nH]c(=O)c2C(F)(F)F)C1 (stereo partly drawn) [I-A-17, 5-(((2S)-1-(3-(2,6-dimethyl-4-(5-(trifluoromethyl)pyrimidin-2-yl)piperazine-1-carbonyl)azetidin-1-yl)propan-2-yl)amino)-4-(trifluoromethyl)pyridazin-3(2H)-one]
IC50 [1]: < 100 nM

C[C@@H](CN1CC(C(=O)N2CCN(c3ccc(C(F)(F)F)cn3)CC2)C1)Nc1cn[nH]c(=O)c1C(F)(F)F [I-A-10, (S)-4-(trifluoromethyl)-5-((1-(3-(4-(5-(trifluoromethyl)pyridin-2-yl)piperazine-1-carbonyl)azetidin-1-yl)propan-2-yl)amino)pyridazin-3(2H)-one]
IC50 [1]: < 100 nM

C[C@@H](CN1CC(C(=O)N2CCN(c3ncc(Cl)cn3)CC2)C1)Nc1cn[nH]c(=O)c1C(F)(F)F [I-A-5, (S)-5-((1-(3-(4-(5-chloropyrimidin-2-yl)piperazine-1-carbonyl)azetidin-1-yl)propan-2-yl)amino)-4-(trifluoromethyl)pyridazin-3(2H)-one]
IC50 [1]: < 100 nM

C[C@@H](CN1CC[C@H](C(=O)N2CCN(c3ncc(C(F)(F)F)cn3)CC2)C1)Nc1cn[nH]c(=O)c1C(F)(F)F [I-A-18, 4-(trifluoromethyl)-5-(((2S)-1-(3-(4-(5-(trifluoromethyl)pyrimidin-2-yl)piperazine-1-carbonyl)pyrrolidin-1-yl)propan-2-yl)amino)pyridazin-3(2H)-one]
IC50 [1]: 100 to 500 nM

C[C@@H](CN1CC(C(=O)N2CCN(c3ncc(S(C)(=O)=O)cn3)CC2)C1)Nc1cn[nH]c(=O)c1C(F)(F)F [I-A-4, (S)-5-((1-(3-(4-(5-(methylsulfonyl)pyrimidin-2-yl)piperazine-1-carbonyl)azetidin-1-yl)propan-2-yl)amino)-4-(trifluoromethyl)pyridazin-3(2H)-one]
IC50 [1]: < 100 nM

C[C@@H](CN1CC(C(=O)N(C)C2CN(c3ncc(C(F)(F)F)cn3)C2)C1)Nc1cn[nH]c(=O)c1C(F)(F)F [I-A-16, (S)-N-methyl-1-(2-((6-oxo-5-(trifluoromethyl)-1,6-dihydropyridazin-4-yl)amino)propyl)-N-(1-(5-(trifluoromethyl)pyrimidin-2-yl)azetidin-3-yl)azetidine-3-carboxamide]
IC50 [1]: < 100 nM

O=C(NC/C=C/CNc1cn[nH]c(=O)c1C(F)(F)F)N1CCN(c2ncc(C(F)(F)F)cn2)CC1 [I-E-2, (E)-N-(4-((6-oxo-5-(trifluoromethyl)-1,6-dihydropyridazin-4-yl)amino)but-2-en-1-yl)-4-(5-(trifluoromethyl)pyrimidin-2-yl)piperazine-1-carboxamide]
IC50 [1]: < 100 nM | IC50 [2]: < 100 nM

CC(CC1CN(C(=O)C2CCN(c3ncc(C(F)(F)F)cn3)CC2)C1)Nc1cn[nH]c(=O)c1C(F)(F)F [I-D-1, 4-(trifluoromethyl)-5-((1-(1-(1-(5-(trifluoromethyl)pyrimidin-2-yl)piperidine-4-carbonyl)azetidin-3-yl)propan-2-yl)amino)pyridazin-3(2H)-one]
IC50 [1]: < 100 nM | IC50 [2]: < 100 nM

C[C@@H](CN1CC(C(=O)N2CCN(c3nccc(C(F)(F)F)n3)CC2)C1)Nc1cn[nH]c(=O)c1C(F)(F)F [I-A-13, (S)-4-(trifluoromethyl)-5-((1-(3-(4-(4-(trifluoromethyl)pyrimidin-2-yl)piperazine-1-carbonyl)azetidin-1-yl)propan-2-yl)amino)pyridazin-3(2H)-one]
IC50 [1]: < 100 nM | IC50 [2]: < 100 nM
